Values of other authors in patent US20200254013A1, “COMPOSITIONS COMPRISING ALPHA-POLYGLUTAMIC ACID-ZINC FOR TREATING CANCER” (XYLONIX IP HOLDINGS PTE. LTD., priority 2017, published 2020).

Legend:
[1] = tested on: folate receptor (FR), FR-α and FR-β
[2] = tested on: murine thymocytes, murine splenic lymphocytes, human Ramos B, and human Jurkat T cells; conditions: nanomolar concentrations
[3] = tested on: LNCaP, PC3, DU145 prostate cancer cell lines; conditions: 1-10 μM
[4] = dietary administration 240 ppm, after 9-14 days

Compound	affinity for FR-α versus FR-β [1]	apoptosis in leukocyte-originating cells [2]	ATP-depletion and necrosis in prostate cancer cell lines [3]	neurological toxicity in rats [4]
CN(CC1CNc2nc(N)[nH]c(=O)c2N1C)c1ccc(C(=O)N[C@@H](CCC(=O)O)C(=O)O)cc1 (stereo partly shown) [DMTHF, N^5, N^10-dimethyl tetrahydrofolate]	higher affinity for FR-α over FR-β	–	–	–
zinc pyrithione	–	induced zinc-specific apoptosis	elicited ATP-depletion and, eventually, ERK and PKC-dependent necrosis	acute neurological toxicity
